What all share (experiment): In vitro MMP inhibition analysis (fluorogenic peptide substrate cleavage), Ki
What all share (format): biochemical

The target of assay [1] is T1, Human recombinant MMP-2 (Homo sapiens, UniProt P08253).
T1 construct: made in house; host or cells: MMP-2-transfected p2AHT2 cells
T1 sequence (P08253 110-660): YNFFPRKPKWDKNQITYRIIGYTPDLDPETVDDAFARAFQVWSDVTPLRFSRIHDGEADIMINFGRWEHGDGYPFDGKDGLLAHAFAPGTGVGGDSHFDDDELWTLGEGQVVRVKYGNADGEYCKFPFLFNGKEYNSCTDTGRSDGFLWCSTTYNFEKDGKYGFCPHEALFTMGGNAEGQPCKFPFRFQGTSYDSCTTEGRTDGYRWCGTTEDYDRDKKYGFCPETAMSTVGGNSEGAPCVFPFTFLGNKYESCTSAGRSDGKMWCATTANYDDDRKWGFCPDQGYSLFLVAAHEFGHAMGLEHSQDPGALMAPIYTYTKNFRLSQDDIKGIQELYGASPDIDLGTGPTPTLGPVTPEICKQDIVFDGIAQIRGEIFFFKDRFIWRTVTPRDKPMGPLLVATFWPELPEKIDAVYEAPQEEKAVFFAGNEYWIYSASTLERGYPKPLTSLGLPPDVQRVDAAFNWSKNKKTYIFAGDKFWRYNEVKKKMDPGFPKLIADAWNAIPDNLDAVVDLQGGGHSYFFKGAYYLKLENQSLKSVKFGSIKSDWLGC
As for the experimental part:
(§1) Several compounds and salts were analyzed in an in vitro assay to determine their ability to inhibit the MMP cleavage of peptide substrates. Inhibition constant (Ki) were calculated from the assayed compound-MMP interactions.
(§2) Human recombinant MMP-1, MMP-2, MMP-9, MMP-13, and MMP-14 were used in this assay. All enzymes were prepared in Assignee's laboratories following usual laboratory procedures. Protocols for the preparation and use of these enzymes are available in the scientific literature. See, e.g., Enzyme Nomenclature (Academic Press, San Diego, Calif., 1992) (and the citations therein). See also, Frije et al., J. Biol. Chem., 26(24), 16766-73 (1994).
The MMP-2 proenzyme was purified by gelatin Sepharose chromatography from MMP-2-transfected p2AHT2 cells provided by Dr. Gregory Goldberg of Washington University (St. Louis, Mo.).
(§3) All MMPs were activated using 4-aminophenylmercuric acetate (“APMA”, Sigma Chemical, St. Louis, Mo.) or trypsin. MMP-9 also was activated using human recombinant MMP-3 (purified in Assignee's laboratory following standard cloning and purification techniques).
(§4) The following fluorogenic, methoxycoumarin-containing polypeptide substrate (I) was used in the MMP inhibition assays: MCA-ArgProLeuGlyLeuDpaAlaArgGluArgNH2 (I) “MCA” is 7-methoxycoumarin-4-yl acetyl. Substrate (I) was prepared Assignee's laboratory. In the absence of MMP inhibitory activity, the substrate is cleaved at the Gly-Leu peptide bond. This cleavage separates the highly fluorogenic peptide from the 2,4-dinitrophenyl quencher, thus resulting in increase of fluorescent intensity.
(§5) The stock solutions of the assayed compounds and salts were prepared in […] (DMSO). These stock solutions were diluted in Buffer A (100 mM Tris-HCl, 100 mM NaCl, 10 mM CaCl2, 0.05% polyoxyethylene 23 lauryl ether, pH 7.5) to obtain solutions with different compound concentrations, i.e., assay solutions with different concentrations of the assayed […] compound. The experiment controls contained the same amount of Buffer A/DMSO as the assayed sample, but contained none of the tested compound or salt.
(§6) The assays from which the Ki determinations were made were performed as follows. The assayed compound samples were incubated in separate wells of untreated white polystyrene plates (Nunc Nalgene International, Rochester, N.Y.), and analyzed on a Tecan SpectraFlour Plus plate reader. The excitation wavelength was 330 nm, and the emission wavelength—420 nm. All samples (assayed compounds and controls) were incubated in separate plate wells at room temperature for 1 hr in the presence of 4 μM of MMP substrate (I). In the absence of MMP inhibitory activity, substrate (I) was cleaved at the Gly-Leu bond resulting in an increase of relative fluorescence. Inhibition was observed as a reduced rate of this increase in relative fluorescence. […] This protocol is a modification of method by Knight et al., FEBS Lett., 296(3), 263-266 (1992). Apparent inhibitory constants were determined by non-linear regression of reaction velocity as a function of inhibitor and enzyme concentration using Morrison's equation, as described by Kuzmic, Anal. Biochem. 286, 45-50 (2000). Modifications were made in the non-linear regression method to allow a common control reaction rate and effective enzyme concentration to be shared between all dose-response relationships on a given assay plate. Since the substrate concentration was chosen to be at or below the Km, the apparent Ki's from this analysis were reported as Ki's without correction for the influence of substrate.
(§7) The above protocols were used to determine Ki constants for the compounds in Examples 2-35 above. All Ki values in Table 1 are given in nM units.

Assay [2] concerns the target T2, Human recombinant MMP-9 (Homo sapiens, UniProt P14780).
T2 construct: made in house; host or cells: MMP-9-transfected HT1080 cells (spent media)
Here is the method:
as §1, §2
The MMP-9 proenzyme was purified by gelatin Sepharose chromatography from spent media of MMP-9-transfected HT1080 cells provided by Dr. Howard Welgus of Washington University (St. Louis, Mo.).
as §3, §4, §5, §6, §7

Assay [3] addresses T3, Human recombinant MMP-14 (Homo sapiens, UniProt P50281).
T3 construct: The catalytic domain enzyme was expressed in E. coli inclusion bodies, solubilized in urea; made in house
Here is the method:
as §1, §2
The MMP-14 full length cDNA was provided by Dr. Gregory Goldberg of Washington University (St. Louis, Mo.). The catalytic domain enzyme was expressed in E. coli inclusion bodies, solubilized in urea, purified on a preparative […] reverse phase HPLC column, and then refolded in the presence of zinc acetate and purified for use.
as §3, §4, §5, §6, §7

pKi: −log10 of the molar value.

T2 sequence (P14780 107-707 limits assumed): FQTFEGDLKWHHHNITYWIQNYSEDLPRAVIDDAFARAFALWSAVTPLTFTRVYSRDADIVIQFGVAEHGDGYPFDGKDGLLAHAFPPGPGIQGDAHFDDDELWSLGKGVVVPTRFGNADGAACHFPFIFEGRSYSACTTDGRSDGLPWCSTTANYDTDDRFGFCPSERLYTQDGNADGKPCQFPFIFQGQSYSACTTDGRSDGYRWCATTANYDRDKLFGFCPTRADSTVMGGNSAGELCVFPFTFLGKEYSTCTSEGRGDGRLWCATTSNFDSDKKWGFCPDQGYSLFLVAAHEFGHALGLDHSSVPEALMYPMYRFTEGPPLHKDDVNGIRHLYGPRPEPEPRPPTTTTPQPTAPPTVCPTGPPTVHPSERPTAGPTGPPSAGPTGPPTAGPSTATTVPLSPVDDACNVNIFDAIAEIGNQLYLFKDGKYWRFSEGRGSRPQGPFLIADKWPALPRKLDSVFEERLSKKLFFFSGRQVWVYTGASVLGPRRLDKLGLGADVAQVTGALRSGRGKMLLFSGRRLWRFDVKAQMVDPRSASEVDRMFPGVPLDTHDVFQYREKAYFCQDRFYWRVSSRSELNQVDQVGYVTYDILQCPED

For `O=C(NO)C1(S(=O)(=O)c2ccc(-c3ccc(-n4cncn4)cc3)cc2)CCOCC1` [Example 126], the results for the pKi in assay [1] (Table 2), in assay [2] (Table 2) and in assay [3] (Table 2) were 9.74, 8.72 and 6.04, respectively.
On to `CCN1CCC(C(=O)NO)(S(=O)(=O)c2ccc(-c3ccc(CCC(F)(F)C(F)(F)F)cn3)cc2)CC1` [Example 52], for which the values for the pKi in assay [1] (Table 1), in assay [2] (Table 1) and in assay [3] (Table 1) were 9.68, 9.24 and 5.59, respectively.
As to `COCCC(C(=O)NO)S(=O)(=O)c1ccc(-c2ccc(CCCC(F)(F)F)cc2)cc1` (stereo not drawn) [Example 47], the pKi in assay [1] (Table 1) was 8.93; in assay [2] (Table 1), 8.55; in assay [3] (Table 1) it was 5.28.
With `O=C(NO)C1(S(=O)(=O)c2ccc(-c3ccc(OCCCC(F)(F)F)cc3)cc2)CCOCC1` [Example 74], the results for the pKi in assay [1] (Table 2), in assay [2] (Table 2) and in assay [3] (Table 2) were 9.52, 8.47 and 6.23, respectively.
The corresponding values for `O=CN1CCC(C(=O)NO)(S(=O)(=O)c2ccc(-c3ccc(CCCC(F)(F)F)cn3)cc2)CC1` [Example 159] are 10.00, 9.42 and 6.22.
In the case of `O=C(NO)C1(S(=O)(=O)c2ccc(-c3cnc(N4CCCCC4)cn3)cc2)CCOCC1` [Example 131], the pKi in assay [1] (Table 2) is 9.05; in assay [2] (Table 2), 8.28; in assay [3] (Table 2), 5.20.
As to `COCCN1CCC(C(=O)NO)(S(=O)(=O)c2ccc(-c3ccc(-c4ccccc4)cc3)cc2)CC1` [Example 152], the values for the pKi in assay [1] (Table 2), in assay [2] (Table 2) and in assay [3] (Table 2) were 10.00, 10.05 and 6.84, respectively.
In the case of `O=C(NO)C1(S(=O)(=O)c2ccc(-c3ccc(CCC(F)(F)C(F)(F)F)cn3)cc2)CCN(C2CC2)CC1` [Example 50], the figures for the negative logarithm of the Ki (pKi) in assay [1] (Table 1), in assay [2] (Table 1) and in assay [3] (Table 1) were 9.72, 9.66 and 5.92, respectively.
On the same counts, the results for `CC(F)(F)CCc1cnc(-c2ccc(S(=O)(=O)C3(C(=O)NO)CCN(C4CC4)CC3)cc2)cn1` [Example 66] are 9.10, 9.51 and 5.37.
For `O=C(NO)C1(S(=O)(=O)c2ccc(-c3ccc(OC(F)(F)C(F)F)cc3)cc2)CCOCC1` [Example 68], the pKi in assay [1] (Table 1) was 10.21; in assay [2] (Table 1), 9.85; in assay [3] (Table 1) it was 6.63.
Consider `CCN1CCC(C(=O)NO)(S(=O)(=O)c2ccc(-c3noc(-c4ccc(F)cc4)n3)cc2)CC1` [Example 147], for which the results for the pKi in assay [1] (Table 2), in assay [2] (Table 2) and in assay [3] (Table 2) were 8.76, 8.15 and 6.86, respectively.
As to `O=C(NO)C1(S(=O)(=O)c2ccc(-c3ccc(-c4ccncc4)cc3)cc2)CCOCC1` [Example 141], the pKi was 10.39 in assay [1] (Table 2), 9.70 in assay [2] (Table 2) and 7.10 in assay [3] (Table 2).
Turning to `O=C(NO)C1(S(=O)(=O)c2ccc(-c3cnc(CCC(F)(F)F)cn3)cc2)CCOCC1` [Example 62], the pKi in assay [1] (Table 1) was 9.06; in assay [2] (Table 1) it was 8.74; in assay [3] (Table 1) it was 5.53.
On the same counts, the results for `CC(F)(F)CCc1cnc(-c2ccc(S(=O)(=O)C3(C(=O)NO)CCOCC3)cc2)cn1` [Example 60] are 9.33, 9.21 and 5.73.
The corresponding values for `O=C(NO)C1(S(=O)(=O)c2ccc(-c3ccc(OC(F)(F)C(F)F)cc3)cc2)CCN(CCl)CC1` [Example 38] are 10.43, 9.90 and 6.35.
The corresponding values for `COCCN1CCC(C(=O)NO)(S(=O)(=O)c2ccc(-c3ccc(OC(F)(F)C(F)F)cc3)cc2)CC1` [Example 39] are 11.05, 10.35 and 6.73.
As for `COCCN1CCC(C(=O)NO)(S(=O)(=O)c2ccc(-c3ccc(CCC(C)(F)F)cn3)cc2)CC1` [Example 67], the pKi in assay [1] (Table 1) is 9.85; in assay [2] (Table 1), 9.72; in assay [3] (Table 1), 6.08.
As for `CCN1CCC(C(=O)NO)(S(=O)(=O)c2ccc(-c3ccc(OCCCCO)cc3)cc2)CC1` [Example 118], the pKi in assay [1] (Table 2) is 9.84; in assay [2] (Table 2), 9.06; in assay [3] (Table 2) it was 6.13.
Turning to `O=C(NO)C1(S(=O)(=O)c2ccc(-c3cnc(CCCC(F)(F)F)cn3)cc2)CCOCC1` [Example 58], the pKi in assay [1] (Table 1) is 8.69; in assay [2] (Table 1) it was 8.78; in assay [3] (Table 1) it was less than 5.00.
The corresponding values for `CCOCCOc1ccc(-c2ccc(S(=O)(=O)C3(C(=O)NO)CCOCC3)cc2)cc1` [Example 37] are 10.05, 8.45 and 6.20.
For `O=C(NO)C1(S(=O)(=O)c2ccc(-c3ccc(-c4ccccc4F)cn3)cc2)CCN(C2CC2)CC1` [Example 150], the pKi in assay [1] (Table 2) was 9.43; in assay [2] (Table 2) it was 9.33; in assay [3] (Table 2), 6.51.
On the same counts, the results for `CCc1cnc(-c2ccc(S(=O)(=O)C3(C(=O)NO)CCOCC3)cc2)nc1` [Example 122] are 8.25, 8.32 and 6.50.
In the case of `COCCN1CCC(C(=O)NO)(S(=O)(=O)c2ccc(-c3ccc(CCCC(F)(F)F)cc3)cc2)CC1` [Example 43], the values for the pKi in assay [1] (Table 1), in assay [2] (Table 1) and in assay [3] (Table 1) were 9.54, 9.37 and 5.80, respectively.
`O=C(NO)C1(S(=O)(=O)c2ccc(-c3ccc(-c4ccccc4)cc3)cc2)CCN(C2CC2)CC1` [Example 153]: the pKi in assay [1] (Table 2) was 9.59; in assay [2] (Table 2) it was 9.74; in assay [3] (Table 2), 6.69.

What is called pKi is −log10 of the Ki, conventionally taken in molar units.

For the origin of these results see patent US20060074243A1, “Hydroxamic acid and amide compounds and their use as protease inhibitors” (Pharmacia Corporation, priority 2002, published 2006).
